Data reported in patent US8034314B2, “Photoreactive compound specifically binding to calcium binding proteins” (priority 2004, dated 2011).

What was measured:
Ca2+-dependent proteins = experiment: Activities of Ca2+-dependent proteins (summary of Table 1); assay type: biochemical; settings: at ≦20 μM
[1] = tested on: glucose 6-phosphate dehydrogenase; experiment: G-6-P dehydrogenase activity; assay type: biochemical; settings: AzRu 100 μM; mean ± SEM
Source text: (§1) Unlabelled ryanodine was obtained from Calbiochem. […] Ruthenium chloride was purchased from Aldrich.

Yeast hexokinase = Yeast hexokinase activity; assay type: biochemical; settings: mean ± SEM
Source text: as §1

K+ channel (KCKN0) = K+ channel (KCKN0) (Drosophila melanogaster, UniProt Q94526); experiment: K+ channel (KCKN0) activity; assay type: biochemical; settings: AzRu 20 μM; mean ± SEM
Lactate dehydrogenase = Lactate dehydrogenase activity; assay type: biochemical; settings: AzRu 100 μM; mean ± SEM
Source text: as §1

[2] = tested on: Ca2+-dependent mitochondrial swelling (PTP opening); experiment: Ca2+-dependent mitochondrial swelling (PTP opening); assay type: biochemical, rat; settings: AzRu 20 μM; PTP opening was completely inhibited at this concentration
Procedure: (§2) Sarcoplasmic reticulum (SR) membranes were prepared from rabbit fast twitch skeletal muscle as described by Saito [Saito et al.: J. Cell Biol. 99 (1984) 875-85]. Mitochondria were isolated from rat liver as described by us previously [Gincel D. et al.: Biochem J. 358 (2001) 147-55]. VDAC was purified by a method developed in our laboratory, using columns of hydroxyapatite and reactive red agarose [Gincel D. et al.: J. Bioenerget. Biomembr. 32 (2000) 571-83].

(Na+/K+)ATPase = (Na+/K+)ATPase activity; assay type: biochemical; settings: mean ± SEM
Alkaline phosphatase = settings: AzRu 100 μM; mean ± SEM
Source text: Aldolase, alkaline phosphatase, ATP, bovine liver catalase, choline oxidase, CM-cellulose, n-decane, glucose 6-phosphate dehydrogenase, glutamate dehydrogenase, glyceraldehyde 3-phosphate dehydrogenase, Hepes, yeast hexokinase, lactate dehydrogenase, leupeptin, luciferase, mannitol, horseradish peroxidase, PMSF, pyruvate kinase, soybean asolectin, sucrose, Tris and Triton X-100 were purchased from Sigma (St. Louis, Mo., USA). [^45Ca], [^103Ru] and [^3H]ryanodine were purchased from NEN® Life Science Products, Inc. (Boston, USA). Unlabelled ryanodine was obtained from Calbiochem. Sephadex LH-20 was purchased from Amersham Biosciences. n-Octyl-β-D-glucopyranoside (β-OG) was obtained from Bachem AG (Germany). Lauryl-(dimethyl)-amineoxide (LDAO) and ruthenium red (98% pure) were obtained from Fluka (Chemie, GmbH). Ruthenium chloride was purchased from Aldrich. Hydroxyapatite (Bio-Gel HTP) was purchased from Bio-Rad Laboratories (Hercules, Calif.) and Celite from Merck. Synthetic firefly D-luciferin reagent was purchased from Biosynth AG.

Pyruvate kinase = target: T1, Pyruvate kinase (Oryctolagus cuniculus, UniProt P11974); experiment: Pyruvate kinase activity; assay type: biochemical; settings: mean ± SEM
T1 construct: purchased Sigma
Source text: as §1

CaMKII-dependent GAPDH = CaMKII-dependent GAPDH activity; assay type: biochemical; settings: AzRu 20 μM; mean ± SEM
VDAC = target: T2, VDAC (Rattus norvegicus, UniProt Q9Z2L0); experiment: VDAC channel conductance in planar lipid bilayer; assay type: biochemical
T2 construct: VDAC was purified by a method developed in our laboratory, using columns of hydroxyapatite and reactive red agarose; from tissue; host or cells: mitochondria
Procedure: as §2
Reconstitution of purified VDAC into planar lipid bilayer (PLB), single channel current recording, and data analysis were carried out as described in above mentioned publication.
VDAC is a channel protein which transports Ca^2+ across the mitochondrial outer membrane. […] Purified VDAC was reconstituted into a planar lipid bilayer as multichannels. The channel activity was measured as the ions passed the current across the bilayer in response to a voltage gradient of 10 mV, as a function of time. In the absence of AzRu, VDAC is stable in a long-lived, fully opened state and remains open for up to 2 hours of recording. However, addition of AzRu to the same channel induced VDAC closure, in a time-dependent manner. Ca^2+, in the presence of 1 M NaCl, prevented the inhibitory effect of AzRu on VDAC activity.

Glutamate dehydrogenase = Glutamate dehydrogenase activity; assay type: biochemical; settings: AzRu 100 μM; mean ± SEM
Source text: as §1

Luciferase = target: T3, Luciferase (Photinus pyralis, UniProt P08659); experiment: Luciferase activity; assay type: biochemical; settings: mean ± SEM
T3 construct: purchased Sigma
Source text: as §1

[3] = tested on: glyceraldehyde 3-phosphate dehydrogenase; experiment: GAP dehydrogenase activity; assay type: biochemical; settings: AzRu 100 μM; mean ± SEM
Source text: as §1

Choline oxidase = target: T4, Choline oxidase (Arthrobacter globiformis, UniProt Q7X2H8); experiment: Choline oxidase activity; assay type: biochemical; settings: AzRu 100 μM; mean ± SEM
T4 construct: purchased Sigma
Source text: as §1

[4] = tested on: U-937 human monocytic cell line; experiment: STS-induced apoptotic cell death of U-937 cells (acridine orange/ethidium bromide staining); assay type: cell-based; settings: AzRu 10 μM added 18 h before STS 1.25 μM; 5 h of exposure to STS
Procedure: The U-937 human monocytic cell line was grown under an atmosphere of 95% air and 5% CO2 in RPMI 1640 supplemented with 10% fetal calf serum (FCS), 1 mM L-glutamine, 100 U/ml penicillin, and 100 μg/ml streptomycin. Cells were plated at a density of 5.4×10^4 cells/cm^2 in 24-well plates and then incubated with or without AzRu for 18 hr before exposure to 1.25 μM staurosporine (STS) to induce apoptosis. Cell viability was analyzed 5 and 7 hrs after STS addition by staining with 100 μg/ml acridine orange (AcOr) and 100 μg/ml ethidium bromide (EtBr) in PBS. The cells were then visualized by fluorescence microscopy (Olympus IX51) and images were recorded on an Olympus DP70 camera, using an SWB filter.
AzRu had no effect on the viability of the cells that were not exposed to STS. In FIG. 13 A, U-937 cells were incubated without (a, c) or with AzRu (10 μM) (b,d) for 18 hrs and thereafter were exposed to STS (1.25 μM) (c and d). After five hours the cells were stained with acridine orange and ethidium bromide. Arrows indicate cells in early apoptotic state, represented as degraded nucleus, but with intact cell membrane (stained by acridine orange). Arrowheads indicate a late apoptotic state, as shown by the presence of a degraded nucleus (stained by both acridine orange and ethidium bromide). Scale bar, 20 μm. In FIG. 13 B, quantitative analysis of apoptotic cell death in control cells and cells exposed to AzRu was assessed 5 and 7 hr after their exposure to STS (1.25 by ANOVA and t-test. P<0.001 was considered statistically significant (***). Data are the means±SEM, n=3. In each independent experiment, approximately 200 cells were counted for each treatment.

T2 sequence (Q9Z2L0 whole entry): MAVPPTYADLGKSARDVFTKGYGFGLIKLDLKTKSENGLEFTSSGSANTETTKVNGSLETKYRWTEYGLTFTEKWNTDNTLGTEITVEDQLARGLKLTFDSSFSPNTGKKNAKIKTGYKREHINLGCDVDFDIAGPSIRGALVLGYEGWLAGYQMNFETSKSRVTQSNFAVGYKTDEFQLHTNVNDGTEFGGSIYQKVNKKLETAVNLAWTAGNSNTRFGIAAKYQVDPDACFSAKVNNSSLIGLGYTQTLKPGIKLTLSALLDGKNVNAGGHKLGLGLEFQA
T1 sequence (P11974 2-531 limits assumed): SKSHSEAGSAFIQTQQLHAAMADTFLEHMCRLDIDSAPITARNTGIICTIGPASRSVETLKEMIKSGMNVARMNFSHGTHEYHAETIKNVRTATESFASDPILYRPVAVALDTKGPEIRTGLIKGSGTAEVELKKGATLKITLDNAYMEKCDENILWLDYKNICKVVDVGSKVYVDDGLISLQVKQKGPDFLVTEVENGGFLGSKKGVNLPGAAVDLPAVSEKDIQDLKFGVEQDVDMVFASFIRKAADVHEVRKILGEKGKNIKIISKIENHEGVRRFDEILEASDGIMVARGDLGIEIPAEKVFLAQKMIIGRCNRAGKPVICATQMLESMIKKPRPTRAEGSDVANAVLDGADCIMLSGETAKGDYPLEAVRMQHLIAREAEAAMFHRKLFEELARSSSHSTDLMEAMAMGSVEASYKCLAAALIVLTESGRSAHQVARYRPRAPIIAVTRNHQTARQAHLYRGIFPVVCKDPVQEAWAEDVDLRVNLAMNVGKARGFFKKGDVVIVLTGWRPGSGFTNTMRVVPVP
T3 sequence (P08659 whole entry): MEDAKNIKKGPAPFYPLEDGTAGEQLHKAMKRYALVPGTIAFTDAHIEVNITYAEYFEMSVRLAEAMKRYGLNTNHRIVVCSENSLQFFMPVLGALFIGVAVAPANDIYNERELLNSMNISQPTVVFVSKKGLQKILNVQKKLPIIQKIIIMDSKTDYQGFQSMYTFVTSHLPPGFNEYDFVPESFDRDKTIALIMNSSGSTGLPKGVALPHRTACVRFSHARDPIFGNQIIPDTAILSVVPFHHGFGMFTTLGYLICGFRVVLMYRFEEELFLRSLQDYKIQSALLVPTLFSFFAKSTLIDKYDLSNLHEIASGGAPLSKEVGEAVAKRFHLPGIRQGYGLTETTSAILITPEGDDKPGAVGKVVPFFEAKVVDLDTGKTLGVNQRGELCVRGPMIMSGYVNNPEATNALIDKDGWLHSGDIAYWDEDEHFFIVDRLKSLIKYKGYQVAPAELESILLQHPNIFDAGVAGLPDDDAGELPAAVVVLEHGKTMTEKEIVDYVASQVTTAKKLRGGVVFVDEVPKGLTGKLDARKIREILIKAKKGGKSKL
T4 sequence (Q7X2H8 whole entry, species assumed): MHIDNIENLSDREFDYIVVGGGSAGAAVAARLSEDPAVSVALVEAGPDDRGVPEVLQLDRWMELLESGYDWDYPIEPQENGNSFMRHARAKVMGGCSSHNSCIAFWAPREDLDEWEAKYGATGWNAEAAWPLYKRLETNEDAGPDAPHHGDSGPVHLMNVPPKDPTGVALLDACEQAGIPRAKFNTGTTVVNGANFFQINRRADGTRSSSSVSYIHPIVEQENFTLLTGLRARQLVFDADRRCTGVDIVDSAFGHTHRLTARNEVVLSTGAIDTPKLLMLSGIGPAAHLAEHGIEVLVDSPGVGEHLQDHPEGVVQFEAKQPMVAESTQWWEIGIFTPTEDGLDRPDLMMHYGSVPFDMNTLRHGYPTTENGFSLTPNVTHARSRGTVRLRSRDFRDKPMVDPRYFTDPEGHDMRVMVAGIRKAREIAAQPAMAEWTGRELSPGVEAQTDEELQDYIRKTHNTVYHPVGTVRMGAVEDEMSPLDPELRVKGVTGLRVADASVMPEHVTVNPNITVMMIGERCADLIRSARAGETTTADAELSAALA
Sequence of K+ channel (KCKN0) (Q94526 whole entry): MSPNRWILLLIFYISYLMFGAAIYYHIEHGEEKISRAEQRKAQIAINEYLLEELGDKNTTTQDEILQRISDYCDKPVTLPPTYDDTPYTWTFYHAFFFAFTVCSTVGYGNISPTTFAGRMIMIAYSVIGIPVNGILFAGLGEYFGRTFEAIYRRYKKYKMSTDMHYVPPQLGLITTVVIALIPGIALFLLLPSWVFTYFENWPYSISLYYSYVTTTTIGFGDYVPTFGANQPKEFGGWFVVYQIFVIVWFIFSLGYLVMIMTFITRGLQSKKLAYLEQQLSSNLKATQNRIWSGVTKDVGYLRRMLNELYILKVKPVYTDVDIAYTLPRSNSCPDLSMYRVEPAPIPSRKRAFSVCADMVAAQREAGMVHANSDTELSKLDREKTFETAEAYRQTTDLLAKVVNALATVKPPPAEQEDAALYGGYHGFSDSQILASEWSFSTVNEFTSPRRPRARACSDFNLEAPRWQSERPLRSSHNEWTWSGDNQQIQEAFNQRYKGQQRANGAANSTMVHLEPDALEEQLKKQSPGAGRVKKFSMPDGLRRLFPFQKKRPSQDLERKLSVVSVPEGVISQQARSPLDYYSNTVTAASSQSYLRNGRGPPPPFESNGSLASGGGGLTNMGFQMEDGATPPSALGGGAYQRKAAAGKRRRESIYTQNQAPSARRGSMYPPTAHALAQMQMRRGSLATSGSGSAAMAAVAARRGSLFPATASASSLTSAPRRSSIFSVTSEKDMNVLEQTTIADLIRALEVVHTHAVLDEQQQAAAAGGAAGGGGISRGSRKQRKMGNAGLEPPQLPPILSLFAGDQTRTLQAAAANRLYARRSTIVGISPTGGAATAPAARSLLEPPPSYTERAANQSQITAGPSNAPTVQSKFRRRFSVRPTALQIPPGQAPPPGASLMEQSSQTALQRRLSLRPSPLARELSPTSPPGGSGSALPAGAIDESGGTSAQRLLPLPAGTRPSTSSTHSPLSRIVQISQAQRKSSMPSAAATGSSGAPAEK

## azido-ruthenium [AzRu]
Ca2+-dependent proteins
  Inhibition of activities of Ca2+-dependent proteins: up to 90%
[1]
  Activity (% of control), G-6-P dehydrogenase: 101 ± 7 % of control
Yeast hexokinase; AzRu 20 μM
  Activity (% of control), Yeast hexokinase: 77 ± 5 % of control
Yeast hexokinase; AzRu 100 μM
  Activity (% of control), Yeast hexokinase: 64 ± 4 % of control
K+ channel (KCKN0)
  Activity (% of control), K+ channel (KCKN0): 100 ± 0.3 % of control
Lactate dehydrogenase
  Activity (% of control), Lactate dehydrogenase: 91 ± 4 % of control
[2]
  Activity (% of control), Ca2+-dependent mitochondrial swelling: 0 % of control
(Na+/K+)ATPase; AzRu 20 μM
  Activity (% of control), (Na+/K+)ATPase: 92 ± 5 % of control
(Na+/K+)ATPase; AzRu 100 μM
  Activity (% of control), (Na+/K+)ATPase: 71 ± 4 % of control
Alkaline phosphatase
  Activity (% of control), Alkaline phosphatase: 86 ± 5 % of control
Pyruvate kinase; AzRu 20 μM
  Activity (% of control), Pyruvate kinase: 97 ± 7 % of control
Pyruvate kinase; AzRu 100 μM
  Activity (% of control), Pyruvate kinase: 81 ± 6 % of control
CaMKII-dependent GAPDH
  Activity (% of control), CaMKII-dependent GAPDH: 6 ± 2 % of control
VDAC; AzRu 20 μM, mean ± SEM
  Activity (% of control), VDAC conductance: 19 ± 5 % of control
VDAC; all voltages tested
  Effect on VDAC conductance in multi-channel experiments: decreased VDAC conductance
VDAC; purified VDAC in planar lipid bilayer, voltage gradient 10 mV
  Effect on VDAC channel activity: inhibited the channel activity of VDAC
Glutamate dehydrogenase
  Activity (% of control), Glutamate dehydrogenase: 101 ± 5 % of control
Luciferase; AzRu 20 μM
  Activity (% of control), Luciferase: 97 ± 1 % of control
Luciferase; AzRu 100 μM
  Activity (% of control), Luciferase: 67 ± 3 % of control
[3]
  Activity (% of control), GAP dehydrogenase: 102 ± 5 % of control
Choline oxidase
  Activity (% of control), Choline oxidase: 85 ± 3 % of control
[4]
  Reduction of STS-activated apoptotic cell death: about 75%
